Consider 23 compounds from patent US11649212B2, “Inhibitors of indoleamine 2,3-dioxygenase and methods of their use” (BRISTOL-MYERS SQUIBB COMPANY, priority 2017, dated 2023).

In assay [1] the target is T1, human IDO1 (Homo sapiens, UniProt P14902).
T1 construct: expressed in transfected cells
The assay can be described thus: IDO inhibition assay in human IDO1/HEK293 cells. It is filed as cell-based. The conditions noted are these: HEK293 cells stably expressing human IDO1, 20 hours incubation, absorbance at 490 nm; read-out: IDO1 HEK Human IC50. The protocol: HEK293 cells were transfected with a pCDNA-based mammalian expression vector harboring human IDO1 cDNA (NM 002164.2) by electroporation. They were cultured in medium (DMEM with 10% FBS) containing 1 mg/ml G418 for two weeks. Clones of HEK293 cells that stably expressed human IDO1 protein were selected and expanded for IDO inhibition assay.
The human IDO1/HEK293 cells were seeded at 10,000 cells per 50 μL per well with RPMI/phenol red free media contains 10% FBS in a 384-well black wall clear bottom tissue culture plate (Matrix Technologies LLC) 100 nL of certain concentration of compound was then added to each well using ECHO liquid handling systems. The cells were incubated for 20 hours in 37° C. incubator with 5% CO2.
The compound treatments were stopped by adding trichloroacetic acid (Sigma-Aldrich) to a final concentration at 0.2%. The cell plate was further incubated at 50° C. for 30 minute. The equal volume supernatant (20 μL) and 0.2% (w/v) Ehrlich reagent (4-dimethylaminobenzaldehyde, Sigma-Aldrich) in glacial acetic acid were mixed in a new clear bottom 384-well plate. This plate was then incubated at room temperature for 30 minute. The absorbance at 490 nm was measured on Envision plate reader.
Compound IC50 values were calculated using the counts of 500 nM of a reference standard treatment as one hundred percent inhibition, and counts of no compound but DMSO treatment as zero percent inhibition.

Assay [2] concerns the target T2, Indoleamine 2,3-Dioxygenase (IDO) (Homo sapiens, UniProt P14902).
T2 construct: endogenous in cells; host or cells: HeLa (ATCC CCL-2), stimulated with IFNγ 25 ng/mL
Kind of assay: HeLa cell-based indoleamine 2,3-dioxygenase (IDO) assay (kynurenine production). The conditions noted are these: HeLa cells, IFNγ 25 ng/mL, 48 hour incubation, kynurenine absorbance at 480 nm. On the procedure:
Assessment of Inhibitor Activity in HeLa Cell-Based Indoleamine 2,3-Dioxygenase (IDO) Assay:
HeLa (ATCC® CCL-2) cells were obtained from the ATCC® and cultured in Dulbecco's Modified Eagle Medium supplemented with 4.5 g/L glucose, […] (#10-013-CV, Corning), 2 mM L-alanyl-L-glutamine dipeptide (#35050-061, Gibco), 100U/mL penicillin, 100 μg/mL streptomycin (#SV30010, HyClone) and 10% fetal bovine serum (#SH30071.03 HyClone). Cells were maintained in a humidified incubator at 37° C. in 5% CO2.
IDO activity was assessed as a function of kynurenine production as follows: HeLa cells were seeded in a 96-well culture plate at a density of 5,000 cells/well and allowed to equilibrate overnight. After 24 hours, the media was aspirated and replaced with media containing IFNγ (#285-IF/CF, R&D Systems) at a final concentration of 25 ng/mL. A serial dilution of each test compound was added to the cells in a total volume of 200 μL of culture medium. After a further 48 hour incubation, 170 μL of supernatant was transferred from each well to a fresh 96-well plate. 12.1 μL of 6.1N trichloroacetic acid (#T0699, Sigma-Aldrich) was added to each well and mixed, followed by incubation at 65° C. for 20 minutes to hydrolyze N-formylkynurenine, the product of indoleamine 2,3-dioxygenase, to kynurenine. The reaction mixture was then centrifuged for 10 mins at 500×g to sediment the precipitate. 100 μL of the supernatant was transferred from each well to a fresh 96-well plate. 100 μl of 2% (w/v) p-dimethylaminobenzaldehyde (#15647-7, Sigma-Aldrich) in acetic acid (#A6283, Sigma-Aldrich) was added to each well mixed and incubated at room temperature for 20 mins. Kynurenine concentrations were determined by measuring absorbance at 480 nm and calibrating against an L-kynurenine (#K8625, Sigma-Aldrich) standard curve using a SPECTRAMAX® M2e microplate reader (Molecular Devices). The percentage activity at each inhibitor concentration was determined and IC50 values assessed using nonlinear regression.

Molecules are shown by their SMILES. pIC50: −log10 of the molar value.

T2 sequence (P14902 whole entry): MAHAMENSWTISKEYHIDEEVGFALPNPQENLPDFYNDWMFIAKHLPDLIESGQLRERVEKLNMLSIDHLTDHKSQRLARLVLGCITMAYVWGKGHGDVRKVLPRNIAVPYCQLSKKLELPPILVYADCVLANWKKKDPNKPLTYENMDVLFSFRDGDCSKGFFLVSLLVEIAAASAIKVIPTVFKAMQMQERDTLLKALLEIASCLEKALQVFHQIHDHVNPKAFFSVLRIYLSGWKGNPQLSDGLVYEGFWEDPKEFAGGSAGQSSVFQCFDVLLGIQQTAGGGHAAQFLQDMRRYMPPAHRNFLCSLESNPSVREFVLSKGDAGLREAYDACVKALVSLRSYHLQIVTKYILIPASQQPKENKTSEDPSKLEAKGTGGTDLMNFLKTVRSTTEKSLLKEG
T1 sequence (P14902 whole entry): as above

As for `CCCC(C(=O)NC12CC3CC(CC(C3)C1)C2)N1CCN(c2ccnc3ccc(F)cc23)CC1` (single isomer, unassigned) [Example 19], in assay [1], the pIC50 – broadly, the IC50 on a negative log10 scale, so that one unit is a factor of ten – was 5.74. On the same count and under the same terms, in the case of `CCCC(C(=O)NC12CC3CC(CC(C3)C1)C2)N1CCN(c2ccnc3ccc(F)cc23)CC1` (single isomer, unassigned) [Example 20] it was 5.72.

Compound `CCC(C(=O)NC1[C@H]2C[C@@H]3C[C@@H](C[C@H]1C3)C2)C1CCN(Cc2cccc(C(F)(F)F)n2)CC1` (single isomer, unassigned) [Example 21, N-(Adamantan-2-yl)-2-(1-((6-(trifluoromethyl)pyridin-2-yl)methyl)piperidin-4-yl)butanamide] showed a pIC50 in assay [2] of 7.70. Compound `CCC(C(=O)NC1[C@H]2C[C@@H]3C[C@@H](C[C@H]1C3)C2)C1CCN(Cc2cccc(C(F)(F)F)n2)CC1` (single isomer, unassigned) [Example 22, N-(Adamantan-2-yl)-2-(1-((6-(trifluoromethyl)pyridin-2-yl)methyl)piperidin-4-yl)butanamide] gave a pIC50 in assay [2] of 6.00.

As for `C[C@@H](NC(=O)C12CCC(Cl)(CC1)CC2)[C@H]1CC[C@@H](c2ccnc3ccc(F)cc32)CC1` [Example 1, 4-chloro-N—((R)-1-((cis)-4-(6-fluoroquinolin-4-yl)cyclohexyl)ethyl)bicyclo [2.2.2]octane-1-carboxamide], in assay [2], the negative logarithm of the IC50 (pIC50) is 7.62. Same read-out and setting: in the case of `C[C@@H](NC(=O)C1CCN(c2ccc(F)cc2)CC1)[C@H]1CC[C@@H](c2ccnc3ccc(F)cc32)CC1` [Example 2, 1-(4-Fluorophenyl)-N—((R)-1-((1s,4S)-4-(6-fluoroquinolin-4-yl)cyclohexyl)ethyl) piperidine-4-carboxamide] it was 7.66. On to `COc1ccc(N2CCC(C(=O)N[C@H](C)[C@H]3CC[C@@H](c4ccnc5ccc(F)cc54)CC3)CC2)cc1` [Example 3, N—((R)-1-((1s,4S)-4-(6-Fluoroquinolin-4-yl)cyclohexyl)ethyl)-1-(4-methoxyphenyl)piperidine-4-carboxamide], for which the pIC50 in assay [1] was 6.10. With `C[C@@H](NC(=O)N1CCN(c2ccccc2)CC1)[C@H]1CC[C@@H](c2ccnc3ccc(F)cc32)CC1` [Example 4, N—((R)-1-((1s,4 S)-4-(6-Fluoroquinolin-4-yl)cyclohexyl)ethyl)-4-phenylpiperazine-1-carboxamide], the pIC50 in assay [2] is 7.74.

Consider `C[C@@H](NC(=O)C1CCCCC1)[C@H]1CC[C@@H](c2ccnc3ccc(F)cc32)CC1` [Example 5, N-((R)-1-((1s,4S)-4-(6-fluoroquinolin-4-yl)cyclohexyl)ethyl)cyclohexanecarboxamide], for which the pIC50 in assay [2] was 7.96. As to `C[C@@H](NC(=O)C1CC1)[C@H]1CC[C@@H](c2ccnc3ccc(F)cc32)CC1` [Example 6, N-((R)-1-((1s,4S)-4-(6-fluoroquinolin-4-yl)cyclohexyl)ethyl)cyclopropanecarboxamide], the negative logarithm of the IC50 (pIC50) in assay [1] was 6.09. In the case of `C[C@@H](NC(=O)C1CC(F)(F)C1)[C@H]1CC[C@@H](c2ccnc3ccc(F)cc32)CC1` [Example 7, 3,3-difluoro-N-((R)-1-((1s,4S)-4-(6-fluoroquinolin-4-yl)cyclohexyl)ethyl)cyclobutanecarboxamide], in assay [2], the negative-log IC50 (pIC50) was 6.26.

In the case of `C[C@@H](NC(=O)C1CC(F)C1)C1CCC(c2ccnc3ccc(F)cc23)CC1` (stereo partly drawn) [Example 8, (1r,3R)-3-fluoro-N-((R)-1-((1s,4S)-4-(6-fluoroquinolin-4-yl)cyclohexyl)ethyl)cyclobutanecarboxamide], the pIC50 in assay [1] was 6.24. On the same count and under the same terms, in the case of `C[C@@H](NC(=O)[C@H]1C[C@@H](F)C1)[C@H]1CC[C@@H](c2ccnc3ccc(F)cc32)CC1` [Example 9, (1s,3S)-3-fluoro-N-((R)-1-((1s,4S)-4-(6-fluoroquinolin-4-yl)cyclohexyl)ethyl)cyclobutanecarboxamide] it was 6.21; in that of `C[C@@H](NC(=O)C1CCC1)[C@H]1CC[C@@H](c2ccnc3ccc(F)cc32)CC1` [Example 10, N-((R)-1-((1s,4S)-4-(6-fluoroquinolin-4-yl)cyclohexyl)ethyl) cyclobutanecarboxamide], 6.72; in that of `C[C@H](NC(=O)C1CCC(O)CC1)C1CCC(c2ccnc3ccc(F)cc23)CC1` (stereo partly drawn) [Example 11, (1s,4S)-N-((R)-1-((1s,4S)-4-(6-fluoroquinolin-4-yl)cyclohexyl)ethyl)-4-hydroxycyclohexane carboxamide], 6.12. Consider `C[C@@H](NC(=O)[C@H]1CC[C@H](O)CC1)[C@H]1CC[C@@H](c2ccnc3ccc(F)cc32)CC1` [Example 12, (1r,4R)-N-((R)-1-((1s,4S)-4-(6-fluoroquinolin-4-yl)cyclohexyl)ethyl)-4-hydroxycyclohexane carboxamide], for which the pIC50 in assay [1] was 6.77. As to `COc1ccc(CN(C(=O)NC2CCCCC2)[C@H]2CC[C@H](c3ccccc3)CC2)cc1` [Example 13, 3-cyclohexyl-1-(4-methoxybenzyl)-1-((1r,4r)-4-phenylcyclohexyl)urea], the pIC50 in assay [2] was 7.18. For the compound `COc1ccc(CN(C(=O)NC2CCCC2)[C@H]2CC[C@H](c3ccccc3)CC2)cc1` [Example 14, 3-cyclopentyl-1-(4-methoxybenzyl)-1-((1r,4r)-4-phenylcyclohexyl)-urea], the pIC50 in assay [1] was 6.92.

For `COc1ccc(CN(C(=O)NC2CC2)[C@H]2CC[C@H](c3ccccc3)CC2)cc1` [Example 15, 3-cyclopropyl-1-(4-methoxybenzyl)-1-((1r,4r)-4-phenylcyclohexyl)-urea], the pIC50 in assay [1] was 6.62. As for `CC1(CC(=O)NC23CC4CC(CC(C4)C2)C3)CCN(c2ccnc3ccc(F)cc23)CC1` [Example 16, N-((3s,5s,7s)-Adamantan-1-yl)-2-(1-(6-fluoroquinolin-4-yl)-4-methylpiperidin-4-yl)acetamide], the negative-log IC50 (pIC50) in assay [2] was 7.51. Take `CC1(CC(=O)N[C@@]23C[C@@H]4C[C@@H](C[C@@](O)(C4)C2)C3)CCN(c2ccnc3ccc(F)cc23)CC1` [Example 17, 2-(1-(6-Fluoroquinolin-4-yl)-4-methylpiperidin-4-yl)-N-((1r,3s,5R,7S)-3-hydroxyadamantan-1-yl)acetamide]: the negative logarithm of the IC50 (pIC50) in assay [1] was 6.41. Turning to `CC1(CC(=O)NC23CC4CC(CC(C4)C2)C3)CCN(c2ccnc(C(F)(F)F)c2)CC1` [Example 18, N-((3 s,5 s, 7 s)-Adamantan-1-yl)-2-(4-methyl-1-(2-(trifluoromethyl)pyridin-4-yl)piperidin-4-yl)acetamide], in assay [1], the pIC50 is 6.74. In assay [2], `C[C@@H](C(=O)NC12CC3CC(C)(CC(C)(C3)C1)C2)[C@H]1CC[C@@H](c2ccnc3ccc(F)cc32)CC1` [Example 23, (cis)-(2R)—N-(3,5-dimethyladamantan-1-yl)-2-(4-(6-fluoroquinolin-4-yl)cyclohexyl)propanamide] had a pIC50 of 7.85.
